What is called pIC50 is the IC50 on a negative log10 scale, so that one unit is a factor of ten.

Results on 16 compounds are retold here after US20230373985A1 (Origenis Gmbh, priority 2020, published 2023).

pIC50: −log10 of the molar value.

Test [1] concerns the target T1, wt human TYK2, catalytic site (Homo sapiens, UniProt P29597).
T1 construct: wt human TYK2, catalytic site; purchased SignalChem
T1 sequence (P29597 897-1176 limits assumed): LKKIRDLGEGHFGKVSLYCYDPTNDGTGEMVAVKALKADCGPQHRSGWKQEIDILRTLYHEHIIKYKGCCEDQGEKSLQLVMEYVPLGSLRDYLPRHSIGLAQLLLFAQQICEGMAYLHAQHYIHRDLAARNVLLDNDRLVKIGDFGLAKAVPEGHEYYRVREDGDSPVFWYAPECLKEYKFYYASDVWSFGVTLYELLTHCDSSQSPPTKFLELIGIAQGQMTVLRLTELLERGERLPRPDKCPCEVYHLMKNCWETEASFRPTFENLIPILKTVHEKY
The test can be described thus: HTRF KinEASE assay, TYK2. Format: biochemical. Conditions: 1 μM ATP; read-out: IC50, Activity Toward TYK2. In short, it runs like this: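 Kinase reaction run at room temperature for at least 30 min: 2 nM TYK2 with 1 μM ATP, or 1 nM JAK2 with 100 μM ATP, each with 1 μM biotin-TK substrate. Phosphorylation detected by HTRF (60 min antibody/XL665) and evaluated from emission ratios.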

Test [2] has as its target T2, wt human NUAK1, full length (Homo sapiens, UniProt O60285).
T2 construct: 8 nM wt human NUAK1, full length (ThermoFisher/USA); purchased ThermoFisher
T2 sequence (O60285 1-661): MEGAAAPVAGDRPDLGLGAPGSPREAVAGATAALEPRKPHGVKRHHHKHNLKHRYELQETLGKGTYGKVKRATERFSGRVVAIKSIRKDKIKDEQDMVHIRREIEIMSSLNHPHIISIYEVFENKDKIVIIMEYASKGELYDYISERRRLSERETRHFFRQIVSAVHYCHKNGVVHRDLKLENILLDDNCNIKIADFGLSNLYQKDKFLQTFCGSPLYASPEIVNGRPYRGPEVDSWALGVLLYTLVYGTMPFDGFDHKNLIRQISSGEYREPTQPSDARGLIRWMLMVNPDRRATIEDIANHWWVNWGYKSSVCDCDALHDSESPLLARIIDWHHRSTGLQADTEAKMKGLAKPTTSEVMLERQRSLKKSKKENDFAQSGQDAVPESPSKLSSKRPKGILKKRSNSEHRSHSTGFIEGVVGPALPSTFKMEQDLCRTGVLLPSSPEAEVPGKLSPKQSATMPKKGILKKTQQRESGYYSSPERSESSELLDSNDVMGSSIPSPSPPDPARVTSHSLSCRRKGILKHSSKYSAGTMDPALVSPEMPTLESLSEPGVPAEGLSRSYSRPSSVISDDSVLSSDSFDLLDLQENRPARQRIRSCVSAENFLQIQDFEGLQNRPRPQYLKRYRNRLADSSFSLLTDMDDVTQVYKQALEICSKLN
The test can be described thus: TR-FRET LanthaScreen Eu Kinase Binding Assay, NUAK1. Conditions: read-out: IC50, Activity Toward NUAK1. How it is done:
The basic protocol for TR-FRET LanthaScreen Eu Kinase Binding Assay inhibitor studies were performed as follows. LanthaScreen Kinase Binding Assays (ThermoFisher/USA) to evaluate inhibitors were performed by addition of 5 μL of test compound in corresponding DMSO dilutions/5 μl of kinase/antibody mixture, 5 μL of tracer into 384 well small volume plates. After incubation for 1 hour at room temperature, plates were read. Data analysis of emission ratios was according LanthaScreen Eu Kinase Binding Assay protocol.
Kinase and assay components were adjusted to final concentrations according to kit protocol. For LRRK2: 5 nM wt human LRRK2, catalytic site, or G2019S human LRRK2, catalytic site (ThermoFisher/USA), 2 nM Eu-Anti-GST Antibody, 10 nM Kinase Tracer 236 in 1× Kinase Buffer A. For NUAK1: 8 nM wt human NUAK1, full length (ThermoFisher/USA), 2 nM Eu-Anti-His Antibody, 5 nM Kinase Tracer 236 in 1× Kinase Buffer A.
(In general: Time-resolved FRET reads energy transfer from a long-lived donor to a nearby acceptor.)

Test [3] deals with T3, wt human JAK1, catalytic site (Homo sapiens, UniProt P23458).
T3 construct: wt human JAK1, catalytic site; purchased ThermoFisher
The test can be described thus: HTRF KinEASE assay, JAK1. It is filed as biochemical. Conditions: 2.5 μM ATP; read-out: IC50, Activity Toward JAK1. In short, it runs like this: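 Compounds in DMSO dilution were mixed with kinase, biotin-TK substrate and ATP and reacted for ≥30 min at room temperature. Detection reagents (antibody, streptavidin-XL665) were read 60 min later as HTRF, with emission ratios analysed per KinEASE protocol.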

The target of test [4] is T4, G2019S human LRRK2, catalytic site (Homo sapiens, UniProt Q5S007, G2019S).
T4 construct: G2019S human LRRK2, catalytic site; purchased ThermoFisher
The test can be described thus: TR-FRET LanthaScreen Eu Kinase Binding Assay, LRRK2 G2019S. Conditions: LRRK2(G2019); one range stated for wt and G2019; read-out: IC50, Activity Toward LRRK2(G2019). In short, it runs like this:
(§1)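 Kinase Buffer A holding, as final levels, 8 nM full-length NUAK1, 2 nM Eu-anti-His antibody and 5 nM Tracer 236, or 5 nM LRRK2 catalytic site (wt or G2019S), 2 nM Eu-anti-GST and 10 nM Tracer 236. Compound added, then 1 h at room temperature before TR-FRET ratio readout.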

The target of test [5] is T5, wt human LRRK2, catalytic site (Homo sapiens, UniProt Q5S007).
T5 construct: 5 nM wt human LRRK2, catalytic site; purchased ThermoFisher
As to the kind of experiment: TR-FRET LanthaScreen Eu Kinase Binding Assay, LRRK2 wt. Conditions: one range stated for wt and G2019, read-out: IC50, Activity Toward LRRK2(Wt). Summed up: as §1

T4 sequence (Q5S007 970-2527 G2019S limits assumed): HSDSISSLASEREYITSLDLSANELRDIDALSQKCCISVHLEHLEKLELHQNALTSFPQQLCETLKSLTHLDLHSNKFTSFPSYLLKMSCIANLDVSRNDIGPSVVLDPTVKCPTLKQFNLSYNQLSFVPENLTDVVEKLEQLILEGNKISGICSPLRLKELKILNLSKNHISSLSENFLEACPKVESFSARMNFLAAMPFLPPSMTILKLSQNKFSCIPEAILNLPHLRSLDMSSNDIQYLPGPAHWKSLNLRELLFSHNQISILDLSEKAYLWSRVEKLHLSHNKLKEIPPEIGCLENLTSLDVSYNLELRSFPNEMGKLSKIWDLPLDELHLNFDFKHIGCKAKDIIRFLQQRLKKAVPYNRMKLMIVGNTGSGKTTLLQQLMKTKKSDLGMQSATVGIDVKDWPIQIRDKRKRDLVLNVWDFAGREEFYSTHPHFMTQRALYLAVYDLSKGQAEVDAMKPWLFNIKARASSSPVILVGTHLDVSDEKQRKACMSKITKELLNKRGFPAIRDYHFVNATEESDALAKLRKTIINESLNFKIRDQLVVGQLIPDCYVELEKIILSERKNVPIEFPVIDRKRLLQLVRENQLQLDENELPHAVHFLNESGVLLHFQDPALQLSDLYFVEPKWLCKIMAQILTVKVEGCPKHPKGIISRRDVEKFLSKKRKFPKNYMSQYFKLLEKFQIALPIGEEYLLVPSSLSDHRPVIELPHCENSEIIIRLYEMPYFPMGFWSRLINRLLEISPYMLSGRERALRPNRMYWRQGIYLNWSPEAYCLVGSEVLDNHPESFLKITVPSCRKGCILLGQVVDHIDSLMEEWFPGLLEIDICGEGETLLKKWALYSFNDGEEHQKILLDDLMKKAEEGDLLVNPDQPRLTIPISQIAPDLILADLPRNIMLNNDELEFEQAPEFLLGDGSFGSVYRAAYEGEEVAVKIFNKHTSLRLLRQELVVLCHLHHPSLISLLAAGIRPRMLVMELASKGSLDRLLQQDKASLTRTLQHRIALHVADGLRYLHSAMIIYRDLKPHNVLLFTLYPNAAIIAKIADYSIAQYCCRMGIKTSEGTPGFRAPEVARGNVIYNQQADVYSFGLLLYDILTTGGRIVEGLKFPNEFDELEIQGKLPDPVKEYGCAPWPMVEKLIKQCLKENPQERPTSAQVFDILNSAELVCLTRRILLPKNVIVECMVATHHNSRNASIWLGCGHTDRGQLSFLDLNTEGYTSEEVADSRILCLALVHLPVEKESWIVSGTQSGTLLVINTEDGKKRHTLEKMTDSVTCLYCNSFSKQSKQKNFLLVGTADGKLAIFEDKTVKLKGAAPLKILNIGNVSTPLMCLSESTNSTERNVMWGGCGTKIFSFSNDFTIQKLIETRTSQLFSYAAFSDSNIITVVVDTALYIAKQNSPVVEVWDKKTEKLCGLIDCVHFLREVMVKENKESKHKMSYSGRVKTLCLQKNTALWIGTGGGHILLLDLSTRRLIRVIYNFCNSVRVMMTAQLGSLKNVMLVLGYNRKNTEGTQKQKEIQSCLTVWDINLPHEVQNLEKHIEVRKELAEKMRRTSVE
T5 sequence (Q5S007 970-2527 limits assumed): as the sequence (Q5S007 970-2527 G2019S limits assumed) above, with S1050G counted along it
T3 sequence (P23458 875-1153 limits assumed): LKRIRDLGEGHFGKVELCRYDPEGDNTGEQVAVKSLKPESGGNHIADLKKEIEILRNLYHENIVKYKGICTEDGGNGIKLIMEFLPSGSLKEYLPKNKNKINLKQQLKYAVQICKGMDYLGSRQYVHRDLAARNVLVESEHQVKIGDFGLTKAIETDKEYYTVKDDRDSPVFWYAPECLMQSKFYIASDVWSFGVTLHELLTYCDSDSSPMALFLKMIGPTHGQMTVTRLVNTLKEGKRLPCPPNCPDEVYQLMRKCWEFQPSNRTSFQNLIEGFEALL

As to `NC(=O)c1nn(-c2c(Cl)cccc2Cl)cc1Nc1cnc(C(=O)N2CC[C@@H](F)C2)cn1` [compound 403, (R)-1-(2,6-dichlorophenyl)-4-((5-(3-fluoropyrrolidine-1-carbonyl)pyrazin-2-yl)amino)-1H-pyrazole-3-carboxamide], the pIC50 in test [1] and in test [2] was 6.00 to 7.00 in each case.
For the compound `NC(=O)c1nn(-c2c(Cl)cccc2Cl)cc1Nc1ccc(C(=O)N2CC[C@H](N)C2)cc1` [compound 319, (S)-4-((4-(3-aminopyrrolidine-1-carbonyl)phenyl)amino)-1-(2,6-dichlorophenyl)-1H-pyrazole-3-carboxamide], the pIC50 was 7.00 to 8.00 in test [1], 6.00 to 7.00 in test [2] and 7.00 to 8.00 in test [3].
As for `CCn1ncnc1-c1ccc(Nc2cn(-c3c(Cl)cccc3Cl)nc2C(N)=O)cc1` [compound 47, 1-(2,6-dichlorophenyl)-4-((4-(1-ethyl-1H-1,2,4-triazol-5-yl)phenyl)amino)-1H-pyrazole-3-carboxamide], the pIC50 is 6.00 to 7.00 in test [4], 6.00 to 7.00 in test [5], 7.00 to 8.00 in test [1] and 6.00 to 7.00 in test [3].
With `Cn1cc(C(F)(F)F)nc1-c1ccc(Nc2cn(-c3c(F)cccc3Cl)nc2C(N)=O)cc1` [compound 305, 1-(2-chloro-6-fluorophenyl)-4-((4-(1-methyl-4-(trifluoromethyl)-1H-imidazol-2-yl)phenyl)amino)-1H-pyrazole-3-carboxamide], the pIC50 in test [4] is 6.00 to 7.00; in test [5] it was 6.00 to 7.00; in test [1] it was > 8.00; in test [3] it was 7.00 to 8.00.
`Cn1nc(C(F)(F)F)nc1-c1ccc(Nc2cn(-c3c(F)cccc3Cl)nc2C(N)=O)cc1` [compound 231, 1-(2-chloro-6-fluorophenyl)-4-((4-(1-methyl-3-(trifluoromethyl)-1H-1,2,4-triazol-5-yl)phenyl)amino)-1H-pyrazole-3-carboxamide]: the pIC50 in test [4] is 6.00 to 7.00; in test [5], 6.00 to 7.00; in test [1], > 8.00; in test [3], > 8.00.
Consider `CP(C)(=O)c1ccc(Nc2cn(-c3c(F)cccc3F)nc2C(N)=O)cc1` [compound 64, 1-(2,6-difluorophenyl)-4-((4-(dimethylphosphoryl)phenyl)amino)-1H-pyrazole-3-carboxamide], for which the pIC50 in test [4], in test [5], in test [1] and in test [3] was 6.00 to 7.00 each time.
With `Cc1cncc2nnc(-c3ccc(Nc4cn(-c5c(Cl)cccc5Cl)nc4C(N)=O)cn3)n12` [compound 436, 1-(2,6-dichlorophenyl)-4-((6-(5-methyl-[1,2,4]triazolo[4,3-a]pyrazin-3-yl)pyridin-3-yl)amino)-1H-pyrazole-3-carboxamide], the pIC50 in test [4] is 6.00 to 7.00; in test [5], 6.00 to 7.00; in test [1], 7.00 to 8.00; in test [3] it was > 8.00.
In the case of `NC(=O)c1nn(-c2c(Cl)cccc2Cl)cc1Nc1ccc(N2CCCS2(=O)=O)cc1` [compound 272, 1-(2,6-dichlorophenyl)-4-((4-(1,1-dioxidoisothiazolidin-2-yl)phenyl)amino)-1H-pyrazole-3-carboxamide], the pIC50 in test [4] was 6.00 to 7.00; in test [5] it was 6.00 to 7.00; in test [1], 6.00 to 7.00; in test [3] it was 7.00 to 8.00.
Regarding `Cc1ccnn1-c1ccc(Nc2cn(-c3c(Cl)cccc3Cl)nc2C(N)=O)cc1` [compound 80, 1-(2,6-dichlorophenyl)-4-((4-(5-methyl-1H-pyrazol-1-yl)phenyl)amino)-1H-pyrazole-3-carboxamide], the pIC50 in test [4] was 6.00 to 7.00; in test [5], 6.00 to 7.00; in test [1], 7.00 to 8.00; in test [3], 7.00 to 8.00.
Regarding `CC(C)n1cnnc1-c1ccc(Nc2cn(-c3c(Cl)cccc3Cl)nc2C(N)=O)cn1` [compound 400, 1-(2,6-dichlorophenyl)-4-((6-(4-isopropyl-4H-1,2,4-triazol-3-yl)pyridin-3-yl)amino)-1H-pyrazole-3-carboxamide], the pIC50 in test [4] was 6.00 to 7.00; in test [5] it was 6.00 to 7.00; in test [1] it was 7.00 to 8.00; in test [3] it was 6.00 to 7.00.
For the compound `CCc1cncnc1-c1ccc(Nc2cn(-c3c(Cl)cccc3Cl)nc2C(N)=O)cc1` [compound 52, 1-(2,6-dichlorophenyl)-4-((4-(5-ethylpyrimidin-4-yl)phenyl)amino)-1H-pyrazole-3-carboxamide], the pIC50 was 6.00 to 7.00 in test [4], 6.00 to 7.00 in test [5], 7.00 to 8.00 in test [1] and 6.00 to 7.00 in test [3].
For the compound `CCNC(=O)c1ccc(Nc2cn(-c3c(Cl)cccc3Cl)nc2C(N)=O)cc1` [compound 34, 1-(2,6-dichlorophenyl)-4-((4-(ethylcarbamoyl)phenyl)amino)-1H-pyrazole-3-carboxamide], the pIC50 in test [4] is 6.00 to 7.00; in test [5], 6.00 to 7.00; in test [1] it was 7.00 to 8.00; in test [3], 7.00 to 8.00.
Consider `N#Cc1cccc(F)c1-n1cc(Nc2ccc(C(=O)N3CC[C@@H](F)C3)cc2)c(C(N)=O)n1` [compound 450, (R)-1-(2-cyano-6-fluorophenyl)-4-((4-(3-fluoropyrrolidine-1-carbonyl)phenyl)amino)-1H-pyrazole-3-carboxamide], for which the pIC50 in test [4] is 6.00 to 7.00; in test [5], 6.00 to 7.00; in test [1], > 8.00; in test [3], 7.00 to 8.00.
In the case of `CC(C)(C)OC(=O)N1CCCC(NC(=O)c2ccc(Nc3cn(-c4c(F)cccc4Cl)nc3C(N)=O)cc2)C1` (stereo not shown) [compound 37, tert-butyl_3-(4-((3-carbamoyl-1-(2-chloro-6-fluorophenyl)-1H-pyrazol-4-yl)amino)benzamido)piperidine-1-carboxylate], the pIC50 in test [4], in test [5], in test [1] and in test [3] was 6.00 to 7.00 in each case.
With `NC(=O)c1nn(-c2c(Cl)cccc2Cl)cc1Nc1ccc(C(=O)N2CCC(F)(F)C2)cc1` [compound 247, 1-(2,6-dichlorophenyl)-4-((4-(3,3-difluoropyrrolidine-1-carbonyl)phenyl)amino)-1H-pyrazole-3-carboxamide], the pIC50 in test [4] was 6.00 to 7.00; in test [5], 6.00 to 7.00; in test [1], > 8.00; in test [3] it was 7.00 to 8.00.
Turning to `NC(=O)c1nn(-c2c(Cl)cccc2Cl)cc1Nc1ccc(C(=O)N2CC[C@H](F)C2)cc1` [compound 316, (S)-1-(2,6-dichlorophenyl)-4-((4-(3-fluoropyrrolidine-1-carbonyl)phenyl)amino)-1H-pyrazole-3-carboxamide], the pIC50 is 6.00 to 7.00 in test [4], 6.00 to 7.00 in test [5], > 8.00 in test [1] and 7.00 to 8.00 in test [3].
